According to PubChem BioAssay AID1259407 (Chemical Carcinogenesis Research Information System (CCRIS), 2018):
Active and inactive are the calls of the source. The rule behind the calls is not given here.

Tested on: CCRIS mutagenicity, Ames/micronucleus/aberration tests
Experiment: CCRIS mutagenicity studies
[1] = Test System: AMES SALMONELLA TYPHIMURIUM, Strain/Indicator: TA98, Metabolic Activation: NONE, Method: PREINCUBATION
[2] = Test System: AMES SALMONELLA TYPHIMURIUM, Strain/Indicator: TA100, Metabolic Activation: NONE, Method: PREINCUBATION
[3] = Test System: AMES SALMONELLA TYPHIMURIUM, Strain/Indicator: TA100, Metabolic Activation: NONE, Method: STANDARD PLATE
[4] = Test System: AMES SALMONELLA TYPHIMURIUM, Strain/Indicator: TA98, Metabolic Activation: NONE, Method: STANDARD PLATE
[5] = Test System: MOUSE LYMPHOMA, Strain/Indicator: L5178Y (TK+/TK-), Metabolic Activation: NONE, Method: SUSPENSION/PLATE
[6] = Test System: MOUSE LYMPHOMA, Strain/Indicator: L5178Y (TK+/TK-), Metabolic Activation: RAT, LIVER, S-9, AROCLOR 1254, Method: SUSPENSION/PLATE

In the case of `Nc1ccc([N+](=O)[O-])c(N)c1`, the mutagenic call (Test System: AMES SALMONELLA TYPHIMURIUM, Strain/Indicator: TA97, Metabolic Activation: HAMSTER, LIVER, S-9, AROCLOR 1254 (10%), Method: PREINCUBATION) is reported as “inactive; negative”, the mutagenic call (Test System: AMES SALMONELLA TYPHIMURIUM, Strain/Indicator: TA97, Metabolic Activation: NONE, Method: PREINCUBATION) is reported as “inactive; negative” and the mutagenic call (Test System: AMES SALMONELLA TYPHIMURIUM, Strain/Indicator: TA97, Metabolic Activation: RAT, LIVER, S-9, AROCLOR 1254 (5, 10 OR 30%), Method: PREINCUBATION) is reported as “inactive; negative”. The mutagenic call (Test System: AMES SALMONELLA TYPHIMURIUM, Strain/Indicator: TA98, Metabolic Activation: HAMSTER, LIVER, S-9, AROCLOR 1254 (10%), Method: PREINCUBATION) was “active; positive”, the mutagenic call [1] was “active; positive” and the mutagenic call (Test System: AMES SALMONELLA TYPHIMURIUM, Strain/Indicator: TA98, Metabolic Activation: RAT, LIVER, S-9, AROCLOR 1254 (10%), Method: PREINCUBATION) was “active; positive”. The mutagenic call (Test System: AMES SALMONELLA TYPHIMURIUM, Strain/Indicator: TA100, Metabolic Activation: HAMSTER, LIVER, S-9, AROCLOR 1254 (10%), Method: PREINCUBATION) was “inactive; negative”, the mutagenic call [2] was “inactive; negative” and the mutagenic call (Test System: AMES SALMONELLA TYPHIMURIUM, Strain/Indicator: TA100, Metabolic Activation: RAT, LIVER, S-9, AROCLOR 1254 (10%), Method: PREINCUBATION) was “inactive; negative”. The mutagenic call (Test System: AMES SALMONELLA TYPHIMURIUM, Strain/Indicator: TA1535, Metabolic Activation: HAMSTER, LIVER, S-9, AROCLOR 1254 (10%), Method: PREINCUBATION) was “inactive; negative”, the mutagenic call (Test System: AMES SALMONELLA TYPHIMURIUM, Strain/Indicator: TA1535, Metabolic Activation: NONE, Method: PREINCUBATION) was “inactive; negative” and the mutagenic call (Test System: AMES SALMONELLA TYPHIMURIUM, Strain/Indicator: TA1535, Metabolic Activation: RAT, LIVER, S-9, AROCLOR 1254 (10%), Method: PREINCUBATION) was “inactive; negative”. The mutagenic call (Test System: AMES SALMONELLA TYPHIMURIUM, Strain/Indicator: TA1537, Metabolic Activation: HAMSTER, LIVER, S-9, AROCLOR 1254 (10%), Method: PREINCUBATION) was “active; positive”, the mutagenic call (Test System: AMES SALMONELLA TYPHIMURIUM, Strain/Indicator: TA1537, Metabolic Activation: NONE, Method: PREINCUBATION) was “inactive; negative” and the mutagenic call (Test System: AMES SALMONELLA TYPHIMURIUM, Strain/Indicator: TA1537, Metabolic Activation: RAT, LIVER, S-9, AROCLOR 1254 (10%), Method: PREINCUBATION) was “inactive; negative”.

`Cc1cc2ccccc2c2ccc3c(c12)[C@H](O)[C@@H](O)[C@H]1O[C@@H]31` was tested, and the mutagenic call [2] was “inactive; negative”.

With `NC(Cc1c[nH]c2ccccc12)C(=O)O` (centres undefined) the mutagenic call (Test System: AMES SALMONELLA TYPHIMURIUM, Strain/Indicator: TA98, Metabolic Activation: RAT LIVER S-9, CHLOROPHENE, Method: STANDARD PLATE (COMPOUND HEATED AT 250 DEGREES CELSIUS FOR 20 MIN)) was “inactive; negative”.

In the case of `COc1c(O)cc2oc(-c3ccc(O)cc3)cc(=O)c2c1O`, the mutagenic call [1] is reported as “inactive; negative”, the mutagenic call (Test System: AMES SALMONELLA TYPHIMURIUM, Strain/Indicator: TA98, Metabolic Activation: RAT LIVER S-9, SODIUM BARBITAL AND BETA-NAPHTHAFLAVONE, Method: PREINCUBATION) is reported as “inactive; negative” and the mutagenic call [2] is reported as “inactive; negative”. The mutagenic call (Test System: AMES SALMONELLA TYPHIMURIUM, Strain/Indicator: TA100, Metabolic Activation: RAT LIVER S-9, SODIUM BARBITAL AND BETA-NAPHTHAFLAVONE, Method: PREINCUBATION) was “inactive; negative”.

In the case of `O=CNc1ccc(Oc2ccccc2)cc1`, the mutagenic call [3] is reported as “inactive; negative” and the mutagenic call (Test System: AMES SALMONELLA TYPHIMURIUM, Strain/Indicator: TA100, Metabolic Activation: RAT, LIVER, S-9, KANECLOR 500, Method: STANDARD PLATE) is reported as “active; positive”.

With `CS(=O)(=O)OCCCCOS(C)(=O)=O` the mutagenic call [4] was “inactive; negative”, the mutagenic call (Test System: AMES SALMONELLA TYPHIMURIUM, Strain/Indicator: TA98, Metabolic Activation: S-9, Method: STANDARD PLATE) was “inactive; negative” and the mutagenic call [3] was “inactive; negative”. For the same compound, the mutagenic call (Test System: AMES SALMONELLA TYPHIMURIUM, Strain/Indicator: TA100, Metabolic Activation: S-9, Method: STANDARD PLATE) was “active; positive”, the mutagenic call (Test System: AMES SALMONELLA TYPHIMURIUM, Strain/Indicator: TA1537, Metabolic Activation: S-9, Method: STANDARD PLATE) was “inactive; negative” and the mutagenic call (Test System: E. COLI, Strain/Indicator: WP2 (HCR), Metabolic Activation: NONE, Method: STANDARD PLATE) was “inactive; negative”. For the same compound, the mutagenic call (Test System: E. COLI, Strain/Indicator: WP2 (HCR), Metabolic Activation: S-9, Method: STANDARD PLATE) was “active; positive”, the mutagenic call [5] was “active; positive” and the mutagenic call [6] was “active; positive”.

For `CC(C)NCC(O)COc1cccc2[nH]ccc12` (centres undefined), the mutagenic call (Test System: AMES SALMONELLA TYPHIMURIUM, Strain/Indicator: TA98, Metabolic Activation: NONE) was “inactive; negative”, the mutagenic call (Test System: AMES SALMONELLA TYPHIMURIUM, Strain/Indicator: TA98, Metabolic Activation: RAT, LIVER, S-9, AROCLOR 1254) was “inactive; negative” and the mutagenic call (Test System: AMES SALMONELLA TYPHIMURIUM, Strain/Indicator: TA100, Metabolic Activation: NONE) was “inactive; negative”. For the same compound, the mutagenic call (Test System: AMES SALMONELLA TYPHIMURIUM, Strain/Indicator: TA100, Metabolic Activation: RAT, LIVER, S-9, AROCLOR 1254) was “inactive; negative”, the mutagenic call (Test System: AMES SALMONELLA TYPHIMURIUM, Strain/Indicator: TA1535, Metabolic Activation: NONE) was “inactive; negative” and the mutagenic call (Test System: AMES SALMONELLA TYPHIMURIUM, Strain/Indicator: TA1535, Metabolic Activation: RAT, LIVER, S-9, AROCLOR 1254) was “inactive; negative”. The mutagenic call (Test System: AMES SALMONELLA TYPHIMURIUM, Strain/Indicator: TA1537, Metabolic Activation: NONE) was “inactive; negative” and the mutagenic call (Test System: AMES SALMONELLA TYPHIMURIUM, Strain/Indicator: TA1537, Metabolic Activation: RAT, LIVER, S-9, AROCLOR 1254) was “inactive; negative”.

For `C=Cc1ccc(O)c(OC)c1`, the mutagenic call (Test System: AMES SALMONELLA TYPHIMURIUM, Strain/Indicator: TA98, Metabolic Activation: HAMSTER, LIVER, S-9, AROCLOR 1254, Method: STANDARD PLATE) was “inactive; negative”, the mutagenic call [4] was “inactive; negative” and the mutagenic call (Test System: AMES SALMONELLA TYPHIMURIUM, Strain/Indicator: TA98, Metabolic Activation: RAT, LIVER, S-9, AROCLOR 1254, Method: STANDARD PLATE) was “inactive; negative”. For the same compound, the mutagenic call (Test System: AMES SALMONELLA TYPHIMURIUM, Strain/Indicator: TA100, Metabolic Activation: HAMSTER, LIVER, S-9, AROCLOR 1254, Method: STANDARD PLATE) was “inactive; negative”, the mutagenic call [3] was “inactive; negative” and the mutagenic call (Test System: AMES SALMONELLA TYPHIMURIUM, Strain/Indicator: TA100, Metabolic Activation: RAT, LIVER, S-9, AROCLOR 1254, Method: STANDARD PLATE) was “inactive; negative”. For the same compound, the mutagenic call (Test System: AMES SALMONELLA TYPHIMURIUM, Strain/Indicator: TA1535, Metabolic Activation: HAMSTER, LIVER, S-9, AROCLOR 1254, Method: STANDARD PLATE) was “inactive; negative”, the mutagenic call (Test System: AMES SALMONELLA TYPHIMURIUM, Strain/Indicator: TA1535, Metabolic Activation: NONE, Method: STANDARD PLATE) was “inactive; negative” and the mutagenic call (Test System: AMES SALMONELLA TYPHIMURIUM, Strain/Indicator: TA1535, Metabolic Activation: RAT, LIVER, S-9, AROCLOR 1254, Method: STANDARD PLATE) was “inactive; negative”. For the same compound, the mutagenic call (Test System: AMES SALMONELLA TYPHIMURIUM, Strain/Indicator: TA1537, Metabolic Activation: HAMSTER, LIVER, S-9, AROCLOR 1254, Method: STANDARD PLATE) was “inactive; negative”, the mutagenic call (Test System: AMES SALMONELLA TYPHIMURIUM, Strain/Indicator: TA1537, Metabolic Activation: NONE, Method: STANDARD PLATE) was “inactive; negative” and the mutagenic call (Test System: AMES SALMONELLA TYPHIMURIUM, Strain/Indicator: TA1537, Metabolic Activation: RAT, LIVER, S-9, AROCLOR 1254, Method: STANDARD PLATE) was “inactive; negative”. For the same compound, the mutagenic call [5] was “inactive; negative. reevaluation of results: equivocal” and the mutagenic call [6] was “inactive; negative. reevaluation of results: negative”.
